Reference: ChEMBL document CHEMBL1152303, “Synthesis and biological evaluation of a series of liver-selective phosphonic acid thyroid hormone receptor agonists and their prodrugs” (J Med Chem, 2008)
Blank lines part the entries; values can stand above or below the molecule they belong to.

Tests used:
Rattus norvegicus [1] = test: Reduction in total plasma cholesterol level in cholesterol-fed Sprague-Dawley rat at 0.2 mg/kg, ip after 24 hrs; assay type: functional; design: scale not given: the % may be the effect or the level left; settings: route intraperitoneal
[2] = biological target: T1, Thyroid hormone receptor alpha (Homo sapiens, UniProt P10827)
T1 sequence (P10827 whole entry): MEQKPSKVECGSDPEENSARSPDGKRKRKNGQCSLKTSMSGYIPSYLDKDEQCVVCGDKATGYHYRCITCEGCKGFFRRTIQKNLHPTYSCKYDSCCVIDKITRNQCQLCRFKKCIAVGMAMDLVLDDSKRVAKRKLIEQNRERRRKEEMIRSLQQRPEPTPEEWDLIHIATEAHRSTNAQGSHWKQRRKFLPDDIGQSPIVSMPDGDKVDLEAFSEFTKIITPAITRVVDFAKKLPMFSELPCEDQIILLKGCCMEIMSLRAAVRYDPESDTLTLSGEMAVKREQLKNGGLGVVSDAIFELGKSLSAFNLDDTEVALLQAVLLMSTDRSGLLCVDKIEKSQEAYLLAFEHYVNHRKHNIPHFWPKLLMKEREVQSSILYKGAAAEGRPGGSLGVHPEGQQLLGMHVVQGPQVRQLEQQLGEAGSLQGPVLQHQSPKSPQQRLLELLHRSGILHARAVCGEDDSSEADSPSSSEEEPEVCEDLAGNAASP
Description: Displacement of [125I]3,5,3'-triiodo-L-thyronine from His-tagged human recombinant TRalpha1 by scintillation proximity assay

[3] = biological target: T2, Thyroid hormone receptor beta (Homo sapiens, UniProt P10828)
T2 sequence (P10828 whole entry): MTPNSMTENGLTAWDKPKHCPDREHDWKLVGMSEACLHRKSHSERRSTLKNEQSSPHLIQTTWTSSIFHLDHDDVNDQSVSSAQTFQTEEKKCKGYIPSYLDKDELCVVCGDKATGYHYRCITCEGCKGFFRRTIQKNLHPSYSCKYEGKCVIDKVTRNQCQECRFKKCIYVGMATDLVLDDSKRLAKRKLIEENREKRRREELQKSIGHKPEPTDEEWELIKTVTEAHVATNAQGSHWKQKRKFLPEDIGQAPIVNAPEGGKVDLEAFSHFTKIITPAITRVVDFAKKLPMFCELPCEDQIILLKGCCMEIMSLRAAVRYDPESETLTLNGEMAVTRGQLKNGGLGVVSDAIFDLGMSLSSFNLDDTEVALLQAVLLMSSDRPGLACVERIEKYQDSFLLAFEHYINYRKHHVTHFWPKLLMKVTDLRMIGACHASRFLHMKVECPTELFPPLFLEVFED
Description: Displacement of [125I]3,5,3'-triiodo-L-thyronine His-tagged human recombinant TRbeta1 by scintillation proximity assay

Rattus norvegicus [4] = test: Reduction in total plasma cholesterol level in cholesterol-fed Sprague-Dawley rat at 0.5 mg/kg, po after 24 hrs; assay type: functional; design: scale not given: the % may be the effect or the level left
[5] = Metabolic stability in human S9 liver fraction assessed as prodrug remaining at 100 uM after 1 hr; assay type: ADME, subcellular; settings: s9, 1 h
Rattus norvegicus [6] = test: Reduction in total plasma cholesterol level in cholesterol-fed orally dosed Sprague-Dawley rat after 24 hrs relative to control; assay type: functional; design: scale not given: the % may be the effect or the level left
[7] = Metabolic stability in human S9 liver fraction assessed as monoacid levels at 100 uM after 1 hr; assay type: ADME, subcellular; settings: s9, 1 h
[8] = Metabolic stability in human liver S9 fraction assessed as activation rate at 100 uM after 1 hr; assay type: ADME, subcellular; settings: s9, 1 h
Rattus norvegicus [9] = test: Reduction in total plasma cholesterol level in cholesterol-fed orally dosed Sprague-Dawley rat after 24 hrs; assay type: functional; settings: po
Rattus norvegicus [10] = test: Agonist activity at thyroid hormone receptor in Sprague-Dawley rat assessed as heart mGPDH activity at 1 mg/kg administered through osmotic pump infusion per ug protein; assay type: functional
Rattus norvegicus [11] = test: Agonist activity at thyroid hormone receptor in Sprague-Dawley rat assessed as liver mGPDH activity at 1 mg/kg administered through osmotic pump infusion per ug protein; assay type: functional

Ki [2]: 30.5 nM
SMILES: CCC(C)c1cc(Cc2c(C)cc(OCP(=O)(O)O)cc2C)ccc1O (stereo not given)
Activity (Rattus norvegicus [1]): 20.1%

SMILES: CC(C)c1cc(Oc2c(Br)cc(OCP(=O)(O)O)cc2Br)ccc1O
Activity (Rattus norvegicus [1]): 42.6%

SMILES: CC(C)c1cc(Oc2c(I)cc(OCP(=O)(O)O)cc2I)ccc1O
Activity (Rattus norvegicus [1]): 44.7%

Ki [2]: 183 nM
Ki [3]: 25.4 nM
SMILES: Cc1cc(OCP(=O)(O)O)cc(C)c1Oc1ccc(O)c(C(C)C)c1

SMILES: CCOC(=O)OCOP(=O)(COc1cc(C)c(Cc2ccc(O)c(C(C)C)c2)c(C)c1)OCOC(=O)OCC
Activity (Rattus norvegicus [4]): 24%

Stability [5]: 70%
Stability [7]: 6%
Stability [8]: 73 pmol/min/mg
SMILES: CCOC(=O)CNP(=O)(COc1cc(C)c(Cc2ccc(O)c(C(C)C)c2)c(C)c1)NCC(=O)OCC
Activity (Rattus norvegicus [4]): 42%
Activity (Rattus norvegicus [6]): 48%
ED50 (Rattus norvegicus [9]): 0.1 mg/kg

SMILES: CCOC(=O)[C@H](C)NP(=O)(COc1cc(C)c(Cc2ccc(O)c(C(C)C)c2)c(C)c1)N[C@@H](C)C(=O)OCC
Activity (Rattus norvegicus [4]): 42%

SMILES: CCOC(=O)C(C)(C)NP(=O)(COc1cc(C)c(Cc2ccc(O)c(C(C)C)c2)c(C)c1)NC(C)(C)C(=O)OCC
Activity (Rattus norvegicus [4]): 23%

SMILES: O=P(O)(O)Cc1cc(I)c(Oc2ccc(O)c(I)c2)c(I)c1
Activity (Rattus norvegicus [10]): 1.74 U/min
Activity (Rattus norvegicus [11]): 5.38 U/min

SMILES: CC(=O)SCCOP(=O)(COc1cc(C)c(Cc2ccc(O)c(C(C)C)c2)c(C)c1)OCCSC(C)=O
Activity (Rattus norvegicus [4]): 20%

SMILES: Cc1cc(OCP(=O)(OCOC(=O)OC(C)C)OCOC(=O)OC(C)C)cc(C)c1Cc1ccc(O)c(C(C)C)c1
Activity (Rattus norvegicus [4]): 24%

Ki [2]: 0.51 nM
Ki [3]: 0.47 nM
SMILES: Cc1cc(NC(=O)C(=O)O)cc(C)c1Oc1ccc(O)c(C(C)C)c1

Ki [2]: 28.4 nM
Ki [3]: 9.1 nM
SMILES: Cc1cc(NCP(=O)(O)O)cc(C)c1Cc1ccc(O)c(C(C)C)c1
Activity (Rattus norvegicus [1]): 32.3%

SMILES: CCc1cc(Cc2c(C)cc(OCP(=O)(O)O)cc2C)ccc1O
Activity (Rattus norvegicus [1]): 7.5%

Ki [2]: 42.1 nM
Ki [3]: 2.5 nM
SMILES: CC(C)c1cc(Oc2c(Br)cc(CCP(=O)(O)O)cc2Br)ccc1O
Activity (Rattus norvegicus [1]): 34.5%

SMILES: CCOC(=O)[C@H](Cc1ccccc1)NP(=O)(COc1cc(C)c(Cc2ccc(O)c(C(C)C)c2)c(C)c1)N[C@@H](Cc1ccccc1)C(=O)OCC
Activity (Rattus norvegicus [4]): 0%

SMILES: CCOC(=O)[C@@H](NP(=O)(COc1cc(C)c(Cc2ccc(O)c(C(C)C)c2)c(C)c1)N[C@H](C(=O)OCC)C(C)C)C(C)C
Activity (Rattus norvegicus [4]): 13%
